The text below walks through data of patent publication US9326972B2, “Use of phenylmethimazoles, methimazole derivatives, and tautomeric cyclic thiones for the treatment of autoimmune/inflammatory diseases associated with toll-like receptor overexpression” (Ohio University, priority 2004, dated 2016).

Read-outs that look alike come from different tables or passages of the source.

The test system of one assay is FRTL-5 cells. Description: Effect of 2-aminopurine (PKR inhibitor) in dsRNA-transfected FRTL-5 cells. Type of assay: cell-based, rat. As to conditions: FRTL-5, 10 mM 2-AP. The protocol: FIG. 2. […] After total RNA purification, 20 μg of total RNA were analyzed with indicated radiolabeled cDNA probes. […] Cells were transfected Lipofectamine 2000 alone (L) or with the indicated amount of Poly (I:C) (RNA) or endotoxin-free E. coli DNA. After 12 and 24 hours, 20 μg of total RNA was analyzed with the indicated radiolabeled cDNA probes. […] In (C), the effect of 2-aminopurine (a PKR inhibitor) on transfected dsRNA-induced TLR3 mRNA levels was measured. Again cells were transfected with Lipofectamine 2000 alone or Lipofectamine with the indicated amount of Poly (I:C) or endotoxin-free E. coli DNA in the presence or absence of 10 mM 2-aminopurine. After the indicated incubation time, cells were harvested and 20 μg of total RNA was analyzed with the indicated radiolabeled cDNA probes. […] Data are representative of multiple experiments. In sum, dsRNA transfection is needed to increase gene expression of signals implicated in autoimmune-inflammatory diseases such as MHC genes and high levels of Type I interferons, not simply activation of TLR by incubating thyrocytes with dsRNA by dsRNA binding to TLR3 receptors. Moreover, despite increased PKR, the critical signal involved in TLR3/Type I IFN signaling by dsRNA transfection is not PKR mediated. […]

For the next assay, the system named is C57BL/6J mice. Description: LPS-induced endotoxic shock in C57BL/6J mice: survival and signs of shock. Type of assay: in vivo, mouse. As to conditions: for Signs of shock at 12 hours, % of Animals: LPS-challenged mice.
Assay [1] deals with TLR3, MHC Class I, PKR, IP-10 mRNA in FRTL-5 cells. Particulars: FRTL-5, 100 U/ml IFN.
A further assay concerns ERK1/2 MAPK, ELK1. Description: ERK1/2 MAPK phosphorylation and Elk1 transactivation in FRTL-5 thyrocytes. Type of assay: cell-based, rat. Particulars: FRTL-5, pCMV-BD-Elk 1 and pFR-luc, 6 hrs. The protocol: Poly (I:C) (the dsRNA ligand commonly used as a test compound) activates the TLR3 mediated NF-κ β/Map kinase signal pathway in FRTL-5 thyrocytes. FRTL-5 cells were transiently transfected with 100 ng of luciferase reporter pNF-κB Luc and 2 ng of internal control phRL-Tk. After 36 h, cells were incubated with 100 μg/ml poly (I:C) or endotoxin-free E. coli DNA for 6 h. Measurements were made with the Dual Luciferase Assay System (Promega). Poly (I:C) increased TLR3 mediated NF-κB mediated luciferase activity (gene expression) 6 fold; dsDNA had no effect. Further support came from electrophoretic mobility shift analyses (EMSA). When FRTL-5 thyrocytes were incubated with 100 μg/ml poly (I:C), IL-1β, TNF-α or TPA, cells lysed after 1 h, and nuclear translocation of NF-κB measured. The poly (I:C) induced p50/p65 complex formation as measured by the presence of a specific new protein/DNA complex and its inhibition by anti-p50 and p65 antibodies, but not by anti-p52, c-rel and Rel B antibodies; the complex was also supershifted by anti-p50. […] Additionally, when FRTL-5 cells were co-transfected with pCMV-BD-Elk 1 and pFR-luc, then incubated with 100 μg/ml poly (I:C) or IL-1β for 6 hrs, ELK1 transactivation was increased 2-fold by both Poly (I:C) and IL-1β when measured with the Dual Luciferase Assay System (Promega). […]

A further assay deals with NF-κB. Briefly: NF-κB Luc reporter gene in FRTL-5 thyrocytes. Particulars: FRTL-5, pNF-κB Luc, 100 μg/ml, 6 h. Type of assay: cell-based, rat. The protocol:
Poly (I:C) (the dsRNA ligand commonly used as a test compound) activates the TLR3 mediated NF-κ β/Map kinase signal pathway in FRTL-5 thyrocytes. FRTL-5 cells were transiently transfected with 100 ng of luciferase reporter pNF-κB Luc and 2 ng of internal control phRL-Tk. After 36 h, cells were incubated with 100 μg/ml poly (I:C) or endotoxin-free E. coli DNA for 6 h. Measurements were made with the Dual Luciferase Assay System (Promega). Poly (I:C) increased TLR3 mediated NF-κB mediated luciferase activity (gene expression) 6 fold; dsDNA had no effect. Further support came from electrophoretic mobility shift analyses (EMSA). When FRTL-5 thyrocytes were incubated with 100 μg/ml poly (I:C), IL-1β, TNF-α or TPA, cells lysed after 1 h, and nuclear translocation of NF-κB measured. The poly (I:C) induced p50/p65 complex formation as measured by the presence of a specific new protein/DNA complex and its inhibition by anti-p50 and p65 antibodies, but not by anti-p52, c-rel and Rel B antibodies; the complex was also supershifted by anti-p50. […] Additionally, when FRTL-5 cells were co-transfected with pCMV-BD-Elk 1 and pFR-luc, then incubated with 100 μg/ml poly (I:C) or IL-1β for 6 hrs, ELK1 transactivation was increased 2-fold by both Poly (I:C) and IL-1β when measured with the Dual Luciferase Assay System (Promega). NF-κB/MAP Kinase signals evoked by TLR3 binding dsRNA are only one portion of TLR3 functional expression.
Cells were co-transfected with ISRE-Luc and pRLTk-Int and then treated without (none) or with Poly I:C (100 μg/ml), LPS (100 ng/ml), IL-1β (10 ng/ml) TNF-α (25 ng/ml), IFN-β (100 U/ml) or IFN-γ (1000 U/ml) in the presence of DMSO (−) or C10 for 6 hours. Data were obtained using the Dual Luciferase Assay system. The effect on the ISRE element is not duplicated by an NF-κB reporter plasmid despite the similarity of the two elements: ([…])5 (SEQ ID NO:3) vs. ([…])5 (SEQ ID NO:4), respectively. Data are representative of multiple experiments.
Plasmids for Reporter Gene Assays. Human IRF-3 was amplified from human cDNA and cloned into pCR 2.1 by the TOPO/TA (Invitrogen, Carlsbad, Calif.) cloning method, and then sequenced. IRF-3 was then excised by EcoRI digestion and subcloned into pCMV-BD (Stratagene, La Jolla, Calif.) for use in transactivation assays. To construct IFN-β-luc the human IFN-β promoter sequence was amplified from human genomic DNA (Clontech, Palo Alto, Calif.)) using Ex Taq™ Polymerase (Takara, Madison, Wis.). The PCR fragment contained human IFN-β promoter sequence from −125 to +34 relative to the transcription start site (+1) and incorporated KpnI and XhoI restriction sites at the 5′ and 3′ ends, respectively. The primers were as follows: hIFN-β (−125) KpnI (5′-[…]-3′) (SEQ ID NO:9) and hIFN-β (+34) XhoI (5′-[…]-3′). (SEQ ID NO: 10) The fragment was digested with KpnI and XhoI then ligated into a similarly digested pGL3 Basic (Promega, Madison, Wis.) vector. The human MyD88 wild and dominant negative expression vectors were kindly donated by Dr. P. E. Auron. pFR-luc (5×Gal4 DNA binding domains and minimal TATA box), ISRE-Luc, NF-κB-luc and the Elk1 trans-Reporting System were purchased from Stratagene. pRL TK-Int was purchased from Promega.
Transient Expression Analysis. A DEAE procedure was used to transfect promoter-luciferase gene constructs and expression plasmids into FRTL-5 cells. Briefly, FRTL-5 cells were grown in 24-well plates to about 70% confluence, washed with 0.5 ml of serum-free culture medium (6H0 medium), then exposed to 125 μl of premade plasmid-DEAE mixture per well for 15 min at room temperature. The plasmid-DEAE mixture was prepared by incubating 100 ng of plasmid DNA, unless otherwise noted in individual experiments, with 3.125 μl of DEAE-Dextran (10 mg/ml) (Promega, Madison Wis.). FRTL-5 cells were incubated with this mixture for 2 hr at 37° C. in a CO2 incubator, before 2 ml of 6H5 medium was added. […]
A general note: Reporter assays use an easily measured gene product as a stand-in for the process of interest.

Where [2] appears, read: LPS 20 mg/kg i/p, drug i/p 30 min before LPS, 8 mice per group.
The mark [3] stands for this setting: challenged with LPS first, treated after 12 hours when shock had appeared.

`Nc1ncc2[nH]cnc2n1` [Compound 2-AP, 2-aminopurine]: in the assay with FRTL-5 cells, the “dsRNA-transfection-increased NF-κB p65/p50 complex formation (EMSA)” value is given as “strongly inhibited” and the “dsRNA-transfection-induced increase in IFN-β mRNA levels” value is recorded as “did not inhibit”.
For the compound `CNC[C@H](O)[C@@H](O)[C@H](O)[C@H](O)CO.Cc1c(Nc2ncccc2C(=O)O)cccc1C(F)(F)F` [flunixin of meglumine], in the assay with C57BL/6J mice (setting [2]), the “Number of surviving mice, 1 week” value is 0; the “Number of surviving mice, 6 hrs” value is 8; the “Number of surviving mice, 12 hrs” value worked out at 8; the “Number of surviving mice, 18 hrs” value is 4. Besides, in the assay with C57BL/6J mice (setting [2]), the “Number of surviving mice, 36 hrs” value is 0. Also, the “Signs of shock at 12 hours, % of Animals” value in the assay on C57BL/6J mice is reported as 100 % of Animals. Also, in the assay with C57BL/6J mice (setting [3]), the “Number of surviving mice, 1 week” value is given as 0; the “Number of surviving mice, 18 hrs” value was 0; the “Number of surviving mice, 36 hrs” value stood at 0.
As to `C[C@]12C=CC(=O)C=C1CC[C@@H]1[C@@H]2[C@@H](O)C[C@@]2(C)[C@H]1CC[C@]2(O)C(=O)CO` [prednisolone], in the assay with C57BL/6J mice (setting [2]), the “Number of surviving mice, 1 week” value is listed as 0; the “Number of surviving mice, 6 hrs” value turned out to be 8; the “Number of surviving mice, 12 hrs” value came out at 8; the “Number of surviving mice, 18 hrs” value was found to be 3. For the same compound, in the assay with C57BL/6J mice (setting [2]), the “Number of surviving mice, 36 hrs” value is given as 0. Further, in the assay on C57BL/6J mice, the “Signs of shock at 12 hours, % of Animals” value is on record as 100 % of Animals. Further, in the assay on C57BL/6J mice (setting [3]), the “Number of surviving mice, 1 week” value came to 0; the “Number of surviving mice, 18 hrs” value is recorded as 1; the “Number of surviving mice, 36 hrs” value came out at 0.
As to “IFN-γ: a Type II IFN, from Biosource International”, in assay [1] (1 hr), the “GAPDH mRNA, % of Control at 0 Time (±15%)” value (“GAPDH mRNA, % of Control” for short) is reported as 100 % of Control at 0 Time; the “IP-10 mRNA, % of Control at 0 Time (±15%)” value (“IP-10 mRNA, % of Control” for short) is recorded as 100 % of Control at 0 Time; the “MHC Class I mRNA, % of Control at 0 Time (±15%)” value (“MHC Class I mRNA, % of Control” for short) was 100 % of Control at 0 Time; the “PKR mRNA, % of Control at 0 Time (±15%)” value was 100 % of Control at 0 Time. For the same compound, the “TLR3 mRNA, % of Control at 0 Time (±15%)” value in assay [1] (1 hr) is recorded as 100 % of Control at 0 Time. Moreover, in assay [1] (3 hr), the “GAPDH mRNA, % of Control” value was 100 % of Control at 0 Time; the “IP-10 mRNA, % of Control” value was 100 % of Control at 0 Time; the “MHC Class I mRNA, % of Control” value is on record as 100 % of Control at 0 Time; the “PKR mRNA, % of Control at 0 Time (±15%)” value is 100 % of Control at 0 Time. The “TLR3 mRNA, % of Control at 0 Time (±15%)” value in assay [1] (3 hr) is listed as 100 % of Control at 0 Time. Further, in assay [1] (6 hr), the “GAPDH mRNA, % of Control” value is given as 100 % of Control at 0 Time; the “IP-10 mRNA, % of Control” value is listed as 100 % of Control at 0 Time; the “MHC Class I mRNA, % of Control” value is on record as 100 % of Control at 0 Time; the “PKR mRNA, % of Control at 0 Time (±15%)” value is reported as 100 % of Control at 0 Time. Moreover, the “TLR3 mRNA, % of Control at 0 Time (±15%)” value in assay [1] (6 hr) is reported as 100 % of Control at 0 Time. Also, in assay [1] (12 hr), the “GAPDH mRNA, % of Control” value is reported as 100 % of Control at 0 Time; the “IP-10 mRNA, % of Control” value was 100 % of Control at 0 Time; the “MHC Class I mRNA, % of Control” value is given as 100 % of Control at 0 Time; the “PKR mRNA, % of Control at 0 Time (±15%)” value was 100 % of Control at 0 Time. Besides, the “TLR3 mRNA, % of Control at 0 Time (±15%)” value in assay [1] (12 hr) is 100 % of Control at 0 Time.
As to “IL-1β: cytokine used as positive control”, in the assay with ERK1/2 MAPK, ELK1, the “increase of ELK1 transactivation” value stood at 2 fold.
On to Poly (I:C) [reference compound], for which, in the assay with NF-κB, the “increase of NF-κB mediated luciferase activity” value came to 6 fold. In the assay on ERK1/2 MAPK, ELK1, the “increase of ELK1 transactivation” value turned out to be 2 fold.
